Measured values: patent US11214594B2, “Antimicrobial peptide having synergistic antibacterial effect with antibiotics on multidrug resistant bacteria, and use thereof” (priority 2016, dated 2022)
≈ marks a conversion by molar mass, not a printed value. Where a SMILES comes first, the peptide text is derived from it. [ ]: non-standard residue; d: D form.

Tests used:
E. coli [1] = assay: microbe, parasite or virus in culture; format: cell-based, Escherichia coli; conditions: 16 h
Procedure, shortened: (§1)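 Each strain is brought to 2×10^6 CFU in nutrient-sufficient Mueller-Hinton medium and dispensed into wells. Peptide solutions, stepwise diluted 2:1 in the same medium, are then added. The minimal concentration preventing growth gives the MIC.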

MDREC 1229 [2] = assay: microbe, parasite or virus in culture; format: cell-based, Escherichia coli
Procedure, shortened: as §1

MDREC 1238 = format: cell-based, Escherichia coli
Procedure, shortened: as §1

P. aeruginosa = assay: microbe, parasite or virus in culture; format: cell-based, Pseudomonas aeruginosa
Procedure, shortened: as §1

MDRAB 12036 = format: cell-based, Acinetobacter baumannii
Procedure, shortened: as §1

S. typhimurium = assay: microbe, parasite or virus in culture; format: cell-based, Salmonella typhimurium
Procedure, shortened: as §1

MDRST 8007 = assay: Minimal inhibitory concentration (MIC), single agent; format: cell-based, Salmonella typhimurium; conditions: agent alone
Procedure, shortened: as §1

MDRST 8009 = format: cell-based, Salmonella typhimurium; conditions: agent alone
Procedure, shortened: as §1

S. epidermidis = assay: microbe, parasite or virus in culture; format: cell-based, Staphylococcus epidermidis
Procedure, shortened: as §1

S. aureus = assay: microbe, parasite or virus in culture; format: cell-based, Staphylococcus aureus
Procedure, shortened: as §1

MRSA 3114 = format: cell-based, Staphylococcus aureus; conditions: 3114
Procedure, shortened: as §1

MRSA 3126 = format: cell-based, Staphylococcus aureus; conditions: 3126
Procedure, shortened: as §1

E. coli [3] = assay: MIC of antibiotic during combined treatment with antimicrobial peptide; format: cell-based, Escherichia coli; conditions: for Antibiotic MIC, Erythromycin / Antibiotic MIC, Linezolid / Antibiotic MIC, Vancomycin: E. coli
Procedure, shortened: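 Antibiotic diluted in MH medium, dispensed per well with peptide; setup repeated with roles reversed; MIC read per combination.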

MDREC 1229 [4] = assay: as above; format: cell-based, Escherichia coli
Procedure, shortened: (§2)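 Antibiotic MIC came from antibiotic dilutions added to bacteria (2×10^6 CFU/ml, MH medium) already combined with peptide serially diluted 2:1 from its own MIC. Swapping the roles of the two agents gave the peptide MIC.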

A. baumannii = assay: MIC of antimicrobial peptide during combined treatment with antibiotic; format: cell-based, Acinetobacter baumannii
Procedure, shortened: as §2

MDRAB 12035 = assay: as above; format: cell-based, Acinetobacter baumannii
Procedure, shortened: as §2

[5] = peptide treatment concentration 1 μg/ml
[6] = peptide treatment concentration 2 μg/ml
[7] = peptide treatment concentration 4 μg/ml
[8] = peptide treatment concentration 6 μg/ml
[9] = peptide treatment concentration 8 μg/ml
[10] = peptide treatment concentration 16 μg/ml
[11] = peptide treatment concentration 32 μg/ml
[12] = peptide treatment concentration 64 μg/ml
[13] = erythromycin 4 μg/ml (Conc./MIC 1/8)
[14] = erythromycin 8 μg/ml (Conc./MIC 1/4)
[15] = erythromycin 16 μg/ml (Conc./MIC 1/2)
[16] = erythromycin 32 μg/ml (Conc./MIC 1)
[17] = vancomycin 512 μg/ml (Conc./MIC 1/2)
[18] = vancomycin 1024 μg/ml (Conc./MIC 1)

## CC[C@H](C)[C@H](NC(=O)[C@H](CCCCN)NC(=O)[C@H](Cc1c[nH]c2ccccc12)NC(=O)[C@@H](N)CCCNC(=N)N)C(=O)N[C@@H](Cc1ccccc1)C(=O)N[C@@H](CCCCN)C(=O)N[C@@H](CCCCN)C(=O)N[C@H](C(=O)N[C@H](CC(C)C)C(=O)N[C@@H](CCCCN)C(=O)N[C@@H](CC(C)C)C(=O)N[C@@H](CC(C)C)C(=O)N[C@@H](Cc1c[nH]cn1)C(=O)N[C@@H](CCC(=O)O)C(=O)N[C@@H](Cc1ccccc1)C(=O)N[C@@H](CCCCN)C(=O)N[C@@H](CCCCN)C(=O)N[C@@H](Cc1ccccc1)C(N)=O)[C@@H](C)CC [PapMA-23, RWK IFK KIl KLL HEF KKF-NH2] (H-RWKIFKKI[dL]KLLHEFKKF-NH2; N-terminus assumed)
E. coli [1]
  Minimal inhibitory concentration MIC: 32 µg/mL (≈ 13.3 µM)
MDREC 1229 [2]
  Minimal inhibitory concentration MIC: 32 µg/mL (≈ 13.3 µM)
  Peptide MIC, peptide alone: 32 µg/mL
MDREC 1238
  Minimal inhibitory concentration MIC: 32 µg/mL (≈ 13.3 µM)
P. aeruginosa
  Minimal inhibitory concentration MIC: 64 µg/mL (≈ 26.6 µM)
MDRAB 12036
  Minimal inhibitory concentration MIC: 32 µg/mL (≈ 13.3 µM)
S. typhimurium
  Minimal inhibitory concentration MIC: 32 µg/mL (≈ 13.3 µM)
MDRST 8007
  Minimal inhibitory concentration MIC: 64 µg/mL (≈ 26.6 µM)
MDRST 8009
  Minimal inhibitory concentration MIC: 32 µg/mL (≈ 13.3 µM)
S. epidermidis
  Minimal inhibitory concentration MIC: >128 µg/mL
S. aureus
  Minimal inhibitory concentration MIC: >128 µg/mL
MRSA 3114
  Minimal inhibitory concentration MIC: >128 µg/mL
MRSA 3126
  Minimal inhibitory concentration MIC: >128 µg/mL
E. coli [3]; E. coli and MDREC1229
  Synergistic effect of antibacterial activity with existing antibiotics compared with PapMA-1: level similar to that of the PapMA-1 peptide
E. coli [3]; erythromycin combined with peptide at 1 μg/ml
  Antibiotic MIC, Erythromycin: 128 µg/mL
E. coli [3]; erythromycin combined with peptide at 2 μg/ml
  Antibiotic MIC, Erythromycin: 64 µg/mL
E. coli [3]; erythromycin combined with peptide at 4 μg/ml
  Antibiotic MIC, Erythromycin: 16 µg/mL
E. coli [3]; erythromycin combined with peptide at 6 μg/ml
  Antibiotic MIC, Erythromycin: 4 µg/mL
E. coli [3]; erythromycin combined with peptide at 8 μg/ml
  Antibiotic MIC, Erythromycin: 2 µg/mL
E. coli [3]; erythromycin combined with peptide at 16 μg/ml
  Antibiotic MIC, Erythromycin: 0.5 µg/mL
E. coli [3]; erythromycin combined with peptide at 32 μg/ml
  Antibiotic MIC, Erythromycin: 0 µg/mL
E. coli [3]; erythromycin combined with peptide at 64 μg/ml
  Antibiotic MIC, Erythromycin: 0 µg/mL
E. coli [3]; linezolid combined with peptide at 1 μg/ml
  Antibiotic MIC, Linezolid: >128 µg/mL
E. coli [3]; linezolid combined with peptide at 2 μg/ml
  Antibiotic MIC, Linezolid: 128 µg/mL
E. coli [3]; linezolid combined with peptide at 4 μg/ml
  Antibiotic MIC, Linezolid: 64 µg/mL
E. coli [3]; linezolid combined with peptide at 6 μg/ml
  Antibiotic MIC, Linezolid: 32 µg/mL
E. coli [3]; linezolid combined with peptide at 8 μg/ml
  Antibiotic MIC, Linezolid: 16 µg/mL
E. coli [3]; linezolid combined with peptide at 16 μg/ml
  Antibiotic MIC, Linezolid: 16 µg/mL
E. coli [3]; linezolid combined with peptide at 32 μg/ml
  Antibiotic MIC, Linezolid: 0 µg/mL
E. coli [3]; linezolid combined with peptide at 64 μg/ml
  Antibiotic MIC, Linezolid: 0 µg/mL
E. coli [3]; vancomycin combined with peptide at 1 μg/ml
  Antibiotic MIC, Vancomycin: >128 µg/mL
E. coli [3]; vancomycin combined with peptide at 2 μg/ml
  Antibiotic MIC, Vancomycin: >128 µg/mL
E. coli [3]; vancomycin combined with peptide at 4 μg/ml
  Antibiotic MIC, Vancomycin: >128 µg/mL
E. coli [3]; vancomycin combined with peptide at 6 μg/ml
  Antibiotic MIC, Vancomycin: 64 µg/mL
E. coli [3]; vancomycin combined with peptide at 8 μg/ml
  Antibiotic MIC, Vancomycin: 16 µg/mL
E. coli [3]; vancomycin combined with peptide at 16 μg/ml
  Antibiotic MIC, Vancomycin: 8 µg/mL
E. coli [3]; vancomycin combined with peptide at 32 μg/ml
  Antibiotic MIC, Vancomycin: 0 µg/mL
E. coli [3]; vancomycin combined with peptide at 64 μg/ml
  Antibiotic MIC, Vancomycin: 0 µg/mL
MDREC 1229 [4]; [5]
  Antibiotic MIC, Erythromycin: 128 µg/mL
  Antibiotic MIC, Linezolid: >128 µg/mL
  Antibiotic MIC, Vancomycin: >128 µg/mL
MDREC 1229 [4]; [6]
  Antibiotic MIC, Erythromycin: 64 µg/mL
  Antibiotic MIC, Linezolid: 128 µg/mL
  Antibiotic MIC, Vancomycin: >128 µg/mL
MDREC 1229 [4]; [7]
  Antibiotic MIC, Erythromycin: 32 µg/mL
  Antibiotic MIC, Linezolid: 64 µg/mL
  Antibiotic MIC, Vancomycin: >128 µg/mL
MDREC 1229 [4]; [8]
  Antibiotic MIC, Erythromycin: 8 µg/mL
  Antibiotic MIC, Linezolid: 32 µg/mL
  Antibiotic MIC, Vancomycin: 128 µg/mL
MDREC 1229 [4]; [9]
  Antibiotic MIC, Erythromycin: 4 µg/mL
  Antibiotic MIC, Linezolid: 32 µg/mL
  Antibiotic MIC, Vancomycin: 32 µg/mL
MDREC 1229 [4]; [10]
  Antibiotic MIC, Erythromycin: 1 µg/mL
  Antibiotic MIC, Linezolid: 16 µg/mL
  Antibiotic MIC, Vancomycin: 16 µg/mL
MDREC 1229 [4]; [11]
  Antibiotic MIC, Erythromycin: 0 µg/mL
  Antibiotic MIC, Linezolid: 0 µg/mL
  Antibiotic MIC, Vancomycin: 0 µg/mL
MDREC 1229 [4]; [12]
  Antibiotic MIC, Erythromycin: 0 µg/mL
  Antibiotic MIC, Linezolid: 0 µg/mL
  Antibiotic MIC, Vancomycin: 0 µg/mL
A. baumannii; [13]
  Peptide MIC during treatment with erythromycin: 8 µg/mL
A. baumannii; [14]
  Peptide MIC during treatment with erythromycin: 4 µg/mL
A. baumannii; [15]
  Peptide MIC during treatment with erythromycin: 4 µg/mL
A. baumannii; [16]
  Peptide MIC during treatment with erythromycin: 0 µg/mL
A. baumannii; linezolid 32 μg/ml (Conc./MIC 1/8)
  Peptide MIC during treatment with linezolid: 8 µg/mL
A. baumannii; linezolid 64 μg/ml (Conc./MIC 1/4)
  Peptide MIC during treatment with linezolid: 4 µg/mL
A. baumannii; linezolid […] (Conc./MIC 1)
  Peptide MIC during treatment with linezolid: 0 µg/mL
A. baumannii; linezolid […] (Conc./MIC 1/2)
  Peptide MIC during treatment with linezolid: 1 µg/mL
A. baumannii; [17]
  Peptide MIC during treatment with vancomycin: 0.25 µg/mL
A. baumannii; [18]
  Peptide MIC during treatment with vancomycin: 0 µg/mL
A. baumannii; vancomycin […] (Conc./MIC 1/4)
  Peptide MIC during treatment with vancomycin: 0.5 µg/mL
A. baumannii; vancomycin […] (Conc./MIC 1/8)
  Peptide MIC during treatment with vancomycin: 4 µg/mL
MDRAB 12035; [13]
  Peptide MIC during treatment with erythromycin: 8 µg/mL
MDRAB 12035; [14]
  Peptide MIC during treatment with erythromycin: 8 µg/mL
MDRAB 12035; [15]
  Peptide MIC during treatment with erythromycin: 4 µg/mL
MDRAB 12035; [16]
  Peptide MIC during treatment with erythromycin: 0 µg/mL
MDRAB 12035; linezolid 64 μg/ml (Conc./MIC 1/8)
  Peptide MIC during treatment with linezolid: 4 µg/mL
MDRAB 12035; linezolid 512 μg/ml (Conc./MIC 1)
  Peptide MIC during treatment with linezolid: 0 µg/mL
MDRAB 12035; linezolid […] (Conc./MIC 1/2)
  Peptide MIC during treatment with linezolid: 1 µg/mL
MDRAB 12035; linezolid […] (Conc./MIC 1/4)
  Peptide MIC during treatment with linezolid: 4 µg/mL
MDRAB 12035; [17]
  Peptide MIC during treatment with vancomycin: 2 µg/mL
MDRAB 12035; [18]
  Peptide MIC during treatment with vancomycin: 1 µg/mL
MDRAB 12035; vancomycin […] (Conc./MIC 1/4)
  Peptide MIC during treatment with vancomycin: 4 µg/mL
MDRAB 12035; vancomycin […] (Conc./MIC 1/8)
  Peptide MIC during treatment with vancomycin: 4 µg/mL
